From patent US9278131B2, “Process for lowering the viscosity of highly concentrated protein solutions” (ADOCIA, priority 2012, dated 2016) come the findings set out here.

Type in all cases: physicochemical
For data set [1], the system named is bevacizumab. As to the kind of experiment: viscosity of highly concentrated bevacizumab solution, cone/plate rheometer. Conditions: Table I; bevacizumab 250 mg/mL, 150 mM additive, pH 6.2 ± 0.2, 21° C. The source says: (§1) For this example, three solutions of monoclonal antibodies, i.e. a solution of bevacizumab (an IgG1 sold under the name Avastin® by Genentech/Hoffmann La Roche), a solution of infliximab (an IgG1/K sold under the name Remicade® by Schering-Plough), a solution of rituximab (an IgG1/K sold under the name mAbThera® by Hoffmann La Roche) and a solution of fusion protein, i.e. a solution of abatacept (IgG1-CTLA4 sold under the name Orencia® by Bristol-Meyers Squibb), were concentrated by ultrafiltration on Amicon® Ultra-15 filtration units with a cutoff threshold of 50 kDa.
The protein concentration of each concentrated solution was measured by UV spectroscopy (absorbance at 280 nm) after gravimetric dilution of the samples. […]
The effect of RVs 2 and 9 on the viscosity of these four highly concentrated therapeutic protein solutions was then evaluated comparatively with that of Arg and NaCl. To do this, the viscosity was measured using a cone/plate rheometer (TA Instrument, AR 2000 Ex, geometry of diameter 20 mm, cone of 0.5131°, solvent trap filled with water) at a temperature of 21° C. and in flow sweep mode with shear rates of between 5000 and 50 s^−1 (3 points per decade—steady-state sensing). […]

Data set [2] relates to trastuzumab. As to the kind of experiment: viscosity of highly concentrated trastuzumab formulation, cone/plate rheometer at 25° C. (example 7). Conditions: Table VII; trastuzumab 200 mg/mL, 150 mM additive, pH 6 ± 0.2, 25° C. As for the experimental part: For this example, two monoclonal antibody formulations, i.e. infliximab and trastuzumab (an IgG1/κ sold under the name Herceptin® by Genentech) were concentrated by ultrafiltration on Amicon® Ultra-50 centrifugal filtration units with a cutoff threshold of 50 kDa. The protein concentration of each concentrated solution was measured by UV spectroscopy (absorbance at 280 nm) after gravimetric dilution of the samples.
Once reconstituted, the infliximab and trastuzumab formulations were concentrated, respectively, to 212 mg/mL and 277 mg/mL.
The effect of RVs 2 and 11 on the viscosity of these two highly concentrated therapeutic protein formulations was then evaluated comparatively to that of Arg and NaCl. To do this, the viscosity was measured using a cone/plate rheometer (TA Instrument, AR 2000 Ex, geometry of diameter 20 mm, cone of 0.5131°, solvent trap filled with water) at a temperature of 25° C. and in flow sweep mode with shear rates of between 5000 and 50 s^−1 (3 points per decade—steady-state sensing). […]

The subject of data set [3] is rituximab. As to the kind of experiment: viscosity of highly concentrated rituximab solution, cone/plate rheometer. Conditions: rituximab 196 mg/mL, 150 mM additive.
From the text: as §1
The protein concentration of each concentrated solution was measured by UV spectroscopy (absorbance at 280 nm) after gravimetric dilution of the samples.
The solutions of rituximab (10 mg/mL) and of bevacizumab (25 mg/mL) were concentrated, respectively, to 320 mg/mL and 240 mg/mL.
The effect of RVs 2 and 9 on the viscosity of these four highly concentrated therapeutic protein solutions was then evaluated comparatively with that of Arg and NaCl.
The samples thus prepared were stored at room temperature and were analyzed using the rheometer within 24 hours of their preparation.
The pH of these formulations is the same as that of the commercial formulation of the corresponding therapeutic protein.
In this study, the highly concentrated infliximab and rituximab solutions used are the same as those which were prepared and used previously. […] The pH of these formulations is the same as that of the corresponding therapeutic protein formulation, i.e. 7.2±0.2 for infliximab, and 6.5±0.2 for rituximab.

As to `Cl.N=C(N)NCCC[C@H](N)C(=O)O` [Arg, L-arginine hydrochloride salt], the “% viscosity reduction relative to the control “protein alone”” value turned out to be 26% in data set [1]; 58% in data set [3] (Table I, pH 6.5 ± 0.2, 21° C.); 58% in data set [3] (Table III, pH 6.5 ± 0.2). The “% of viscosity reduction relative to the control “protein alone”” value in data set [2] came to 56%.
